The values that follow come from ChEMBL document CHEMBL4842364 (J Med Chem, 2021).

Data set [1] can be described thus: Intrinsic clearance in mouse microsomes. Type of data set: ADME, Microsome.
For a further data set, the target named is Wee1-like protein kinase (Homo sapiens, UniProt P30291).
In the next data set the test system is NCI-H23. Description: Antiproliferative activity against human NCI-H23 cells assessed as reduction in cell viability after 4 days by CellTiter-Glo assay.
The nature of data set [2]: Intrinsic clearance in human microsomes. Format: ADME, Microsome.
The nature of data set [3]: Octanol/buffer distribution coefficient, logD of the compound at pH 7.4. Format: physicochemical.
Data set [4] can be described thus: AUC(0 to 24 hrs) in mouse at 60 mg/kg, po. Format: ADME, organism-based. Also noted: time < 24 hr, route oral, dose 60 mg/kg. To be noted: in vivo.
A short description of data set [5]: AUC(0 to 24 hrs) in rat at 60 mg/kg, po. Format: ADME, organism-based. Particulars: in vivo. Further details: time < 24 hr, route oral, dose 60 mg/kg.

Chain of Wee1-like protein kinase (P30291 whole entry): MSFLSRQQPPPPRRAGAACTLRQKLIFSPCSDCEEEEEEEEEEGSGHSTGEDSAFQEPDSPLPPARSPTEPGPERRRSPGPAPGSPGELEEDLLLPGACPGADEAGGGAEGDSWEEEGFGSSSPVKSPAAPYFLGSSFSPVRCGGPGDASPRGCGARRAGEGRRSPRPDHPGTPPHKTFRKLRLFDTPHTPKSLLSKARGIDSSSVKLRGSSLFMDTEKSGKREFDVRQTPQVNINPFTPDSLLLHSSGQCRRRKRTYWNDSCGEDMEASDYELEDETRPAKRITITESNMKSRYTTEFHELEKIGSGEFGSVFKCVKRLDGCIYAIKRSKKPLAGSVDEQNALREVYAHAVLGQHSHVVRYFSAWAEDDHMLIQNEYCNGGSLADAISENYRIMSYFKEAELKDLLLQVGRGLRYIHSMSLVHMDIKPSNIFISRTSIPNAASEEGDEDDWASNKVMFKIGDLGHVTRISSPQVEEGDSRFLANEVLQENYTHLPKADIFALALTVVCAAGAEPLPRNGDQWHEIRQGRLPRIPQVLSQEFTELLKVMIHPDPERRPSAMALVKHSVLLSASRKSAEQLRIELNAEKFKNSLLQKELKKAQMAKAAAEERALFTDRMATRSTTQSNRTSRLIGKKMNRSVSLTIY
Description for Wee1-like protein kinase: Displacement of Alexa Fluor labelled kinase tracer178 from WEE1 (unknown origin) incubated for 60 mins by FRET assay

For `C=CCn1c(=O)c2cnc(Nc3ccc(N4CCN(C)CC4)cc3)nc2n1-c1ccc2c(n1)[C@@](O)(C(F)F)CC2`, the CLint scaled is 6.48 L/h/kg in data set [1] and 2.82 L/h/kg in data set [2]. Moreover, the IC50 on Wee1-like protein kinase came out at 0.0026 µM; in the data set on NCI-H23 (Homo sapiens, NCI-H23, 96 h), 0.27 µM. The pH-dependent lipophilicity (logD) in data set [3] worked out at 2.3.
`C=CCn1c(=O)c2cnc(Nc3cc(N4CCN(C)CC4)c4ccn(C)c4c3)nc2n1-c1ccc2c(n1)[C@@](O)(CC)CC2`: the CLint scaled worked out at 23.7 L/h/kg in data set [1] and 2.46 L/h/kg in data set [2]. The IC50 against Wee1-like protein kinase was 0.012 µM; in the data set with NCI-H23 (Homo sapiens, NCI-H23, 96 h), 0.109 µM. Further, in data set [4], the AUC(0-t) at 24 h was 14 µM·h. Also, in data set [3], the logD came out at 2.7.
For `C=CCn1c(=O)c2cnc(Nc3ccc4c(ccn4C4CCN(C)CC4)c3)nc2n1-c1ccc2c(n1)[C@@](O)(CC)CC2`, the results for the CLint scaled in data set [1] and in data set [2] were 7.44 L/h/kg and 16 L/h/kg, respectively. The IC50 was 0.0026 µM against Wee1-like protein kinase and 0.116 µM in the data set on NCI-H23 (Homo sapiens, NCI-H23, 96 h). This molecule also registered a logD in data set [3] of 2.7.
Take `C=CCn1c(=O)c2cnc(Nc3ccc(N4CCN(C)CC4)c(C)c3)nc2n1-c1ccc2c(n1)[C@](C)(O)CC2`: the values for the CLint scaled in data set [1] and in data set [2] were 7.26 L/h/kg and 4.8 L/h/kg, respectively. The figures for the AUC(0-t) at 24 h in data set [5] and in data set [4] were 40 µM·h and 52 µM·h, respectively. For the same molecule, the IC50 at Wee1-like protein kinase is 0.0023 µM; with NCI-H23 (Homo sapiens, NCI-H23, 96 h), 0.13 µM. Besides, the logD in data set [3] turned out to be 2.6.
`C=CCn1c(=O)c2cnc(Nc3ccc4c(c3)CNCC43CC3)nc2n1-c1cccc(C(C)(C)O)n1`: the CLint scaled in data set [1] was 83.7 L/h/kg. Further, the IC50 against Wee1-like protein kinase worked out at 0.0024 µM; with NCI-H23 (Homo sapiens, NCI-H23, 96 h), 0.054 µM. This molecule showed an AUC(0-t) at 24 h in data set [4] of 6.4 µM·h. In data set [3], this molecule came in with a log distribution coefficient (logD) of 1.9.
As to `C=CCn1c(=O)c2cnc(Nc3ccc(N4CCN(C)CC4)cc3)nc2n1-c1ccc2c(c1)C(C)(O)CC2` (single isomer, unassigned), the CLint scaled is 12.4 L/h/kg in data set [1] and 1.56 L/h/kg in data set [2]. Further, the values for the AUC(0-t) at 24 h in data set [5] and in data set [4] were 17 µM·h and 19 µM·h, respectively. Besides, the IC50 on Wee1-like protein kinase was determined as 0.0033 µM; in the data set with NCI-H23 (Homo sapiens, NCI-H23, 96 h), 0.186 µM. The molecule also yielded a logD in data set [3] of 2.5.
In data set [1], `C=CCn1c(=O)c2cnc(Nc3ccc4c(c3)CN(CCO)CC4)nc2n1-c1cccc(C(C)(C)O)n1` returned an intrinsic clearance (CLint scaled) of 18.4 L/h/kg. Moreover, the IC50 at Wee1-like protein kinase was found to be 0.0025 µM; in the data set on NCI-H23 (Homo sapiens, NCI-H23, 96 h), 0.274 µM. Further, in data set [4], the AUC(0-t) at 24 h turned out to be 1.8 µM·h. This molecule also registered a logD in data set [3] of 2.2.
As to `C=CCn1c(=O)c2cnc(Nc3ccc(N4CCN(C)CC4)cc3)nc2n1-c1ccc2c(n1)C(F)(F)CC2`, the CLint scaled amounted to 17.6 L/h/kg in data set [1] and 2.88 L/h/kg in data set [2]. The 50% inhibitory concentration (IC50) on Wee1-like protein kinase is 0.0064 µM; in the data set on NCI-H23 (Homo sapiens, NCI-H23, 96 h), 1.53 µM. This molecule had a logD in data set [3] of 2.8.
`C=CCn1c(=O)c2cnc(Nc3ccc(N4CCN(C)CC4)c(C)c3)nc2n1-c1ccc2c(n1)[C@@](O)(CC)CC2`: the CLint scaled in data set [1] came out at 11.5 L/h/kg; in data set [2], 6.12 L/h/kg. For the same molecule, the AUC(0-t) at 24 h in data set [5] was 43 µM·h; in data set [4], 59 µM·h. Besides, the concentration for half-maximal inhibition (IC50) against Wee1-like protein kinase is 0.0031 µM; with NCI-H23 (Homo sapiens, NCI-H23, 96 h), 0.058 µM. Moreover, the logD in data set [3] came to 3.
Regarding `C=CCn1c(=O)c2cnc(Nc3ccc(N4CCN(C)CC4)cc3)nc2n1-c1ccc2c(n1)C(O)(C1CC1)CC2` (single isomer, unassigned), the CLint scaled in data set [1] came out at 4.68 L/h/kg; in data set [2], 2.34 L/h/kg. The half-maximal inhibitory concentration (IC50) came to 0.0029 µM against Wee1-like protein kinase and 0.186 µM in the data set with NCI-H23 (Homo sapiens, NCI-H23, 96 h). Also, the logD in data set [3] amounted to 2.4.
Regarding `C=CCn1c(=O)c2cnc(Nc3ccc(N4CCN(C)CC4)cc3)nc2n1-c1ccc2c(n1)C(O)CC2` (stereo in doubt; 9), the IC50 turned out to be 0.0043 µM on Wee1-like protein kinase and 2.52 µM with NCI-H23 (nci-h23).
Regarding `C=CCn1c(=O)c2cnc(Nc3cccc(N4CCN(C)CC4)c3)nc2n1-c1ccc2c(n1)[C@@](O)(CC)CC2`, the CLint scaled in data set [1] amounted to 66.7 L/h/kg; in data set [2] it was 8.1 L/h/kg. The IC50 on Wee1-like protein kinase was determined as 0.0032 µM; in the data set with NCI-H23 (Homo sapiens, NCI-H23, 96 h), 0.277 µM. This molecule also returned a logD in data set [3] of 2.6.
Turning to `C=CCn1c(=O)c2cnc(Nc3ccc(N4CCN(C)CC4)cc3)nc2n1-c1ccc2c(n1)[C@@](O)(CC)CCC2`, the CLint scaled came to 7.56 L/h/kg in data set [1] and 4.26 L/h/kg in data set [2]. For the same molecule, the AUC(0-t) at 24 h in data set [5] was found to be 24 µM·h; in data set [4] it was 35 µM·h. In addition, the IC50 on Wee1-like protein kinase was found to be 0.0037 µM; in the data set with NCI-H23 (Homo sapiens, NCI-H23, 96 h), 0.056 µM. In data set [3], the pH-dependent lipophilicity (logD) was 2.9.
As to `C=CCn1c(=O)c2cnc(Nc3ccc(N4CCN(C)CC4)cc3)nc2n1-c1ccc2c(n1)[C@@](C)(O)CC2`, the figures for the CLint scaled in data set [1] and in data set [2] were less than 0.516 L/h/kg and 1.08 L/h/kg, respectively. For the same molecule, the AUC(0-t) at 24 h in data set [5] worked out at 14 µM·h; in data set [4], 21 µM·h. The IC50 against Wee1-like protein kinase came out at 0.0052 µM; in the data set with NCI-H23 (Homo sapiens, NCI-H23, 96 h), 1.14 µM. Moreover, the logD in data set [3] is 2.
On to `C=CCn1c(=O)c2cnc(Nc3ccc(N4CCN(C)CC4)cc3)nc2n1-c1ccc2c(n1)C(C)(O)CO2` (single isomer, unassigned), for which the CLint scaled in data set [1] was less than 2.28 L/h/kg; in data set [2], 1.02 L/h/kg. Also, the 50% inhibitory concentration (IC50) against Wee1-like protein kinase was 0.0046 µM; in the data set with NCI-H23 (Homo sapiens, NCI-H23, 96 h) it was 1.43 µM. Also, the logD in data set [3] stood at 1.4.
Turning to `C=CCn1c(=O)c2cnc(Nc3ccc(N4CCN(C)CC4)cc3)nc2n1-c1ccc2c(n1)[C@@](N)(CC)CC2`, the CLint scaled is 9.12 L/h/kg in data set [1] and 1.56 L/h/kg in data set [2]. Moreover, the IC50 was 0.0032 µM on Wee1-like protein kinase and 0.026 µM in the data set with NCI-H23 (Homo sapiens, NCI-H23, 96 h). Besides, the area under the curve AUC(0-t) at 24 h in data set [4] turned out to be 3.9 µM·h. This molecule displayed a logD in data set [3] of 1.4.
In data set [1], `C=CCn1c(=O)c2cnc(Nc3ccc4c(c3)CCN(C)C4)nc2n1-c1cccc(C(C)(C)O)n1` displayed a CLint scaled of 11.2 L/h/kg. In addition, the IC50 is 0.0026 µM at Wee1-like protein kinase and 0.081 µM in the data set with NCI-H23 (Homo sapiens, NCI-H23, 96 h). In data set [4], the AUC(0-t) at 24 h turned out to be 9.6 µM·h. In data set [3], this molecule yielded a logD of 2.5.
Take `C=CC(F)(F)n1c(=O)c2cnc(Nc3ccc(N4CCN(C)CC4)cc3)nc2n1-c1ccc2c(n1)[C@@](O)(CC)CC2`: the IC50 was more than 0.1 µM against Wee1-like protein kinase and 4.73 µM with NCI-H23 (Homo sapiens, NCI-H23, 96 h).
`CC[C@@]1(O)CCc2ccc(-n3c4nc(Nc5ccc(N6CCN(C)CC6)cc5)ncc4c(=O)n3CC3CC3)nc21`: the IC50 was determined as 0.064 µM on Wee1-like protein kinase and 3.36 µM with NCI-H23 (Homo sapiens, NCI-H23, 96 h).
For the molecule `C=CCn1c(=O)c2cnc(Nc3ccc4c(c3)CNCC43CC3)nc2n1-c1ccc2c(n1)[C@@](O)(C(F)(F)F)CC2`, the CLint scaled in data set [1] came to 33.3 L/h/kg; in data set [2], 5.82 L/h/kg. Besides, the 50% inhibitory concentration (IC50) was 0.0025 µM at Wee1-like protein kinase and 0.153 µM in the data set with NCI-H23 (Homo sapiens, NCI-H23, 96 h). In data set [3], this molecule registered a logD of 2.1.
In the case of `CC[C@@]1(O)CCc2ccc(-n3c4nc(Nc5ccc(N6CCN(C)CC6)cc5)ncc4c(=O)n3CC=C(F)F)nc21`, the IC50 against Wee1-like protein kinase amounted to 0.022 µM; with NCI-H23 (Homo sapiens, NCI-H23, 96 h) it was 5.78 µM.
As to `C=CCn1c(=O)c2cnc(Nc3ccc(N4CCN(C)CC4)cc3)nc2n1-c1ccc2c(n1)C(O)CC2` (stereo in doubt; 8), the CLint scaled in data set [1] is less than 2.28 L/h/kg; in data set [2] it was 0.72 L/h/kg. The molecule further yielded an AUC(0-t) at 24 h in data set [5] of 0.3 µM·h. Besides, the IC50 at Wee1-like protein kinase came out at 0.0057 µM; in the data set on NCI-H23 (Homo sapiens, NCI-H23, 96 h), 2.3 µM. The molecule further displayed a logD in data set [3] of 1.7.
In the case of `C=CCn1c(=O)c2cnc(Nc3ccc(N4CCNCC4)cc3)nc2n1-c1ccc2c(n1)[C@@](O)(CC)CC2`, the CLint scaled in data set [1] was determined as 3.12 L/h/kg; in data set [2] it was 1.56 L/h/kg. Further, the IC50 against Wee1-like protein kinase was found to be 0.0032 µM; in the data set with NCI-H23 (Homo sapiens, NCI-H23, 96 h), 0.212 µM. In addition, in data set [4], the AUC(0-t) at 24 h is 1 µM·h. Further, in data set [3], the logD turned out to be 1.
